From ChEMBL document CHEMBL3045739, “Synthesis and Fungicidal Activity of 6-Alkyl Six-membered Cyclic Thiophosphates” (1997)

Assays:
Type in all cases: functional
Athelia rolfsii [1] = test: Fungicidal activity against Athelia rolfsii assessed as fungal growth inhibition at 100 ppm by agar dilution method; details: Agroathelia rolfsii; read-out: GI
Pythium [2] = test: Fungicidal activity against Pythium sp. assessed as fungal growth inhibition at 100 ppm by agar dilution method; details: read-out: GI
Pythium [3] = test: Fungicidal activity against Pythium sp. assessed as fungal growth inhibition at 10 ppm by agar dilution method; details: read-out: GI
Athelia rolfsii [4] = test: Fungicidal activity against Athelia rolfsii assessed as fungal growth inhibition at 10 ppm by agar dilution method; details: Agroathelia rolfsii; read-out: GI

SMILES: CCOP1(=S)OCc2cc(C(C)CC)ccc2O1 (stereo unspecified)
- inhibition of growth at 100 ppm (Athelia rolfsii [1]): 67%
- inhibition of growth at 100 ppm (Pythium [2]): 56%

SMILES: CCCCc1ccc2c(c1)COP(=S)(OCC)O2 (stereo unspecified)
- inhibition of growth at 100 ppm (Athelia rolfsii [1]): 76%
- inhibition of growth at 100 ppm (Pythium [2]): 61%

SMILES: CCCCc1ccc2c(c1)COP(=S)(Oc1ccc(C)cc1C(C)C)O2 (stereo unspecified)
- inhibition of growth at 100 ppm (Athelia rolfsii [1]): 41%
- inhibition of growth at 100 ppm (Pythium [2]): 39%

SMILES: CCCCc1ccc2c(c1)COP(=S)(Oc1cc(C)ccc1C(C)C)O2 (stereo unspecified)
- inhibition of growth at 100 ppm (Athelia rolfsii [1]): 58%
- inhibition of growth at 100 ppm (Pythium [2]): 83%
- inhibition of growth at 10 ppm (Pythium [3]): 23%

SMILES: CCCc1ccc2c(c1)COP(=S)(OCCc1ccccc1)O2 (stereo unspecified)
- inhibition of growth at 100 ppm (Athelia rolfsii [1]): 48%
- inhibition of growth at 100 ppm (Pythium [2]): 48%

SMILES: CCCc1ccc2c(c1)COP(=S)(Oc1cc(C)ccc1C(C)C)O2 (stereo unspecified)
- inhibition of growth at 100 ppm (Athelia rolfsii [1]): 37%
- inhibition of growth at 100 ppm (Pythium [2]): 53%

SMILES: CCCc1ccc2c(c1)COP(=S)(Oc1ccc(C)cc1C(C)C)O2 (stereo unspecified)
- inhibition of growth at 100 ppm (Athelia rolfsii [1]): 27%
- inhibition of growth at 100 ppm (Pythium [2]): 3%

SMILES: CCCc1ccc2c(c1)COP(=S)(OCC)O2 (stereo unspecified)
- inhibition of growth at 100 ppm (Athelia rolfsii [1]): 84%
- inhibition of growth at 100 ppm (Pythium [2]): 56%
- inhibition of growth at 10 ppm (Athelia rolfsii [4]): 63%

SMILES: CCOP1(=S)OCc2cc(C(C)C)ccc2O1 (stereo unspecified)
- inhibition of growth at 100 ppm (Athelia rolfsii [1]): 83%
- inhibition of growth at 100 ppm (Pythium [2]): 66%
- inhibition of growth at 10 ppm (Athelia rolfsii [4]): 45%

SMILES: CCOP1(=S)OCc2cc(CC)ccc2O1 (stereo unspecified)
- inhibition of growth at 100 ppm (Athelia rolfsii [1]): 91%
- inhibition of growth at 100 ppm (Pythium [2]): 82%
- inhibition of growth at 10 ppm (Pythium [3]): 42%
- inhibition of growth at 10 ppm (Athelia rolfsii [4]): 66%

SMILES: CC(C)OP(=O)(OC(C)C)SCc1ccccc1 [IPROBENFOS]
- inhibition of growth at 100 ppm (Athelia rolfsii [1]): 100%
- inhibition of growth at 100 ppm (Pythium [2]): 89%
- inhibition of growth at 10 ppm (Pythium [3]): 42%
- inhibition of growth at 10 ppm (Athelia rolfsii [4]): 69%

SMILES: COP1(=S)OCc2ccccc2O1 (stereo unspecified) [SALITHION]
- inhibition of growth at 100 ppm (Athelia rolfsii [1]): 61%
- inhibition of growth at 100 ppm (Pythium [2]): 75%
